Source: PubChem BioAssay (NCI)
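These data come from cells grown in 96-well plates and exposed to compound for 48 hours at five concentrations. TGI denotes the concentration required for complete inhibition of growth.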 Where a SMILES comes first, the peptide text is derived from it. The star is where a group is joined. Boc = CC(C)(C)OC(=O)*; Bn = c1ccc(C*)cc1

Assays:
Assay in all cases: NCI tumour cell line growth inhibition, 48 h
SR leukemia = system: SR leukemia
M14 melanoma = system: M14 melanoma
HOP-92 NSCLC = system: HOP-92 NSCLC
A498 renal = system: A498 renal
HS 578T breast = system: HS 578T breast
RPMI-8226 leukemia = system: RPMI-8226 leukemia
T-47D breast = system: T-47D breast
IGROV1 ovarian = system: IGROV1 ovarian
DU-145 prostate = system: DU-145 prostate
NCI/ADR-RES ovarian = system: NCI/ADR-RES ovarian
HT29 colon = system: HT29 colon
SK-MEL-2 melanoma = system: SK-MEL-2 melanoma
MDA-MB-231 breast = system: MDA-MB-231 breast
OVCAR-8 ovarian = system: OVCAR-8 ovarian
KM12 colon = system: KM12 colon

Structure (SMILES)	TGI (SR leukemia) [µM]	TGI (M14 melanoma) [µM]	TGI (HOP-92 NSCLC) [µM]	TGI (A498 renal) [µM]	TGI (HS 578T breast) [µM]	TGI (RPMI-8226 leukemia) [µM]	TGI (T-47D breast) [µM]	TGI (IGROV1 ovarian) [µM]	TGI (DU-145 prostate) [µM]	TGI (NCI/ADR-RES ovarian) [µM]	TGI (HT29 colon) [µM]	TGI (SK-MEL-2 melanoma) [µM]	TGI (MDA-MB-231 breast) [µM]	TGI (OVCAR-8 ovarian) [µM]	TGI (KM12 colon) [µM]
[O-]/[N+](=N/c1ncc(-c2ccccc2)cn1)c1ncc(-c2ccccc2)cn1	> 100	> 100	> 100	> 100	> 100	> 100	> 100	> 100	> 100	> 100	> 100	> 100	> 100	> 100	> 100
Nc1ncnc2c1ncn2[C@@H]1C[C@H](NO)[C@@H](O)[C@H]1O	> 100	> 100	> 100	> 100	> 100	> 100	> 100	> 100	> 100	> 100		> 100	> 100	> 100	> 100
COC(=O)/C=C/C(=O)Nc1cc(Cl)c(Cl)cc1CC(=O)N(C)[C@H]1CCCC[C@@H]1N1CCCC1	> 28.3	32.3	18.7	28.9	36	19.2	28.5	22	19.9	35.1	41	22	28.9	16.3	> 56
O=C1OC(C2Cc3ccc4c(c3C2=O)CCCC4)c2ccccc21 (stereo not given)		> 100		53.6	82	> 100	> 100	> 100	> 100	> 100	> 100	> 100	> 100	> 100	> 100
N/N=C(/CC(O)(C(F)(F)F)C(F)(F)F)c1ccccc1	> 10	> 10	> 10	> 10	> 10	> 10	> 10	> 10	> 10	> 10	> 10	> 10	> 10	> 10	> 10
CNc1cccc2c1C(C)C[C@]1(C)C(=O)Nc3ccccc3[C@H]21 (stereo not given in full)	43.3	41.5		43.6	53.6	> 100	> 100	> 100	> 100	45.4	81.6	55.3	42.9	39.1	87.1
O=C1Nc2ccccc2/C1=N/N1C(=O)/C(=C/c2ccccc2S)N=C1c1ccccc1	> 100	> 100	> 100	> 100	> 100	> 100	81.8	> 100	> 100	> 100	> 100	> 100	> 100	> 100	> 100
CC1(C)N([O-])[N+](=O)C1(Br)c1ccccc1 (stereo not given)	> 100	> 100	> 100		> 100	> 100	> 100	> 100	> 100	> 100	> 100	> 100	> 100	> 100	> 100
Cc1ccc(C2=Nn3c(nc4sc5c(c4c3=O)CCCC5)SC2)cc1	> 100		> 100	> 100	> 100	> 100	> 100	> 100	> 100	> 100	> 100		> 100	> 100	> 100
O=c1cc(-c2ccc3ccccc3c2)[nH]c2ncccc12	6.1	> 100	75.6	48.7	> 100	60.7	> 100	> 100	> 100	> 100	> 100	> 100	> 100	> 100	> 100
Oc1ccccc1-c1n[nH]c(-c2ccccc2O)n1	> 100	> 100		> 100	> 100	> 31.1	78.5	> 100	> 100	> 100	> 100	> 100	> 100	> 100	> 100
O=C(/N=C1/OC(CN2CCOCC2)CN1C(=O)Nc1ccccc1)Nc1ccccc1 (stereo not given)	> 100	> 100	> 100	> 100	> 100	> 100	> 100	> 100	> 100	> 100	> 100	> 100	> 100	> 100	> 100
Cc1ccc2nc(-c3ccc(-c4nc5ccc(C)cc5o4)c(O)c3)oc2c1	> 100	> 100	> 100	> 100	> 100	> 100	> 100		> 100	> 100		> 100	> 100	> 100	
COC(=O)/C(C#N)=C(/NCc1ccccc1)Nc1ccccc1	> 100	> 100	> 100	> 100	> 100	> 100	> 100	> 100	> 100	> 100	> 100	> 100	> 100	> 100	
COC(=O)C1Cc2c([nH]c3ccccc23)-c2[nH]c3ccccc3c2CC(NC(C)=O)C(=O)NCC(=O)NCC(=O)N1 (stereo not given)		> 100	> 100	> 100	> 100	> 100	> 100	> 100	> 100	> 100	> 100	> 100	> 100	> 100	> 100
COc1ccc(C(c2cc(OC)c(OC)c(OC)c2)N2C(=O)CCC2C(=O)O)cc1 (stereo not given)	> 100	> 100	> 100	> 100	> 100	> 100	> 100	> 100	> 100	> 100	> 100	> 100	> 100	> 100	> 100

Structure (SMILES)	TGI (SR leukemia) [µM]	TGI (M14 melanoma) [µM]	TGI (HOP-92 NSCLC) [µM]	TGI (A498 renal) [µM]	TGI (HS 578T breast) [µM]	TGI (RPMI-8226 leukemia) [µM]	TGI (T-47D breast) [µM]	TGI (IGROV1 ovarian) [µM]	TGI (DU-145 prostate) [µM]	TGI (NCI/ADR-RES ovarian) [µM]	TGI (HT29 colon) [µM]	TGI (SK-MEL-2 melanoma) [µM]	TGI (MDA-MB-231 breast) [µM]	TGI (OVCAR-8 ovarian) [µM]	TGI (KM12 colon) [µM]
CC(C)N(C(=O)C12C3(C(=O)C(C)(C)C)C4C5(C#N)C3C1(C(=O)C(C)(C)C)C5C42C(=O)C(C)(C)C)C(C)C (stereo not given)	> 100	> 100	> 100	> 100	> 100		> 100	> 100	> 100	> 100	> 100	> 100	> 100	> 100	> 100
COc1cc(OC)c2nc(C)c3c(c2c1)OCC3	> 100	> 100	> 100	> 100	> 100	> 100	> 100	> 100	> 100	> 100	> 100	> 100	52.9	> 100	> 100
CN(C)CCN=C1Nc2ccccc2C(=O)N2CSCC12 (stereo not given)	> 100	> 100		> 100	> 100	> 100	> 100	> 100	> 100	> 100	> 100	> 100	> 100	> 100	> 100
CC1(Cc2cc3c(cc2C2(c4ccc([N+](=O)[O-])cc4)OCCO2)OCO3)OCCO1		> 100		> 100	> 100	78.4	> 100	> 100	> 100	> 100	> 100	> 100	> 100	> 100	> 100
CC(C)(C)CN1[C@@H]2CCCC[C@H]2N(CC(C)(C)C)P1(=O)C(O)/C=C/c1ccccc1 (stereo not given in full)		> 100	67	89.8	73.2	56.1	> 100	> 100	> 100	> 100	> 100	93.1	> 100	> 100	> 100
O=C(c1ccc(Cl)c(Cl)c1)N(C(=O)N1CCN(c2ccccc2)CC1)S(=O)(=O)c1ccccc1	> 100	> 100	84.4	> 100	> 100	> 100	> 100		> 100	> 100	> 100	48.2	> 100	83.5	> 100
O=S1(=O)c2ccccc2-c2nccc3ccnc1c23		> 100	> 100	84.4	> 100	85.6	> 100	> 100	> 100	> 100	23.2	> 100	95.7	> 100	> 100
Cc1ccccc1C1CC(=O)CC(c2ccccc2C)C12C(=O)NC(=S)NC2=O (stereo not given)	> 100	91.8	> 100	72.2	97.2	38.6	> 100		> 100	> 100	54.3	40.3	90.1		53.6
CC(=O)c1sc2n(C)c(=O)c3ccccc3[n+]2c1C	> 100	> 100	> 100		> 100	> 100	> 100	> 100	> 100	> 100	> 100	> 100	> 100	> 100	> 100
CCOC(=O)CNC(=O)CNC(=O)CNC(=O)CNNc1c(OCc2ccccc2)c(=O)c1=O		> 100		> 100	> 100	> 100	> 100	> 100	> 100	> 100	> 100	> 100	> 100	> 100	> 100
COC(=O)C(CC(C)C)NC(=O)CNC(=O)C(Cc1ccc(OCc2ccccc2)cc1)NC(=O)C(COCc1ccccc1)NC(=O)OC(C)(C)C (stereo not given) (Boc-S(Bn)Y(Bn)GL-OMe; configuration not given here)	> 100	> 100	> 100		> 100	> 100	> 100	> 100	> 100	> 100	> 100		> 100	> 100	> 100
C=CC[C@@]12CCC(=O)C=C1CCCC2=O	> 100	> 100	> 100	> 100	> 100	> 100	> 100	> 100	> 100	> 100	> 100	> 100	> 100		
COC(=O)/C=C1/OC(c2ccc(C)cc2C)=CC1=O	> 100	31.1	45.6	42.3	81.7	> 100	38.4	22	30	42.3	18.8		27.5	37.4	31.8
COc1ccc(OC2OC(CO)C(O)C(O)C2O)cc1 (stereo not given)	> 100	> 100		> 100	> 100	> 100	> 100	> 100	> 100	> 100	> 100	> 100	> 100	> 100	> 100
O=C(/C=C/c1ccccc1Br)c1ccccc1		15.1	32.4	11.1	11.3		15.5	9.91	20.1	17.7	9.42	31.3	27.5	8.31	6.53
CCOC(=O)C(C)c1nc2cc(C(F)(F)F)ccc2[nH]c1=O (stereo not given)		> 100	> 100	> 100	> 100	> 100	67.7		> 100	> 100	> 100	> 100	> 100	> 100	> 100
